For one data set, the system named is HBG1/2 promoter. The experiment in a line: Off-target transcriptional activation using RNAseq. It counts as cell-based. As for the experimental part:
FIG. 7A-7C: The plots of FIG. 7 illustrate embodiments in which dRNAs can specifically upregulate gene expression, and have a specificity profile similar to 20 bp sgRNA activators. Sequences targeted to the HBG1/2 promoter were tested for off-target transcriptional activation using RNAseq. 20 nt sgRNAs with MS2 binding loops were co-transfected with dCas9 and the MPH activation complex. […] (In all cases, N=3 replicates/group).

In the next data set the test system is Factor VII. Particulars: LNP siRNA systems containing these lipids; cited from earlier work.
The subject of another data set is dystrophin. Particulars: across 48 weeks, average; cited from earlier work.
[1] abbreviates: 20 nt sgRNA with MS2 loops + dCas9 + MPH.

Consider “SEQ ID NO 90: 20 nt sgRNA with MS2 binding loops targeted to the HBG1/2 promoter, second guide (guide CCAGTGAGGCCAGGGGCCGG; listed as DNA, chemistry not given here)”, for which the “significantly upregulated genes apart from HBG1/2” value with HBG1/2 promoter (setting [1]) amounted to 55. Regarding `CCCCC/C=C\C/C=C\CCCCCCCCOCC(CN(C)C)OCCCCCCCC/C=C\C/C=C\CCCCC` (stereo not drawn) [DLinDMA, 1,2-dilinoleyloxy-3-N,N-dirnethylamiopropane], in the data set on Factor VII, the “gene silencing potency series” value was “DLinKC2-DMA>DLinKDMA>DLinDMA>>DLinDAP”. Regarding `CCCCC/C=C\C/C=C\CCCCCCCCC1(CCCCCCCC/C=C\C/C=C\CCCCC)OCC(CCN(C)C)O1` (stereo not drawn) [DLinKC2-DMA, 1,2-dilinoleyl-4-(2-dimethylaminoethyl)-[1,3]-dioxolane], the “gene silencing potency series” value with Factor VII is listed as “DLinKC2-DMA>DLinKDMA>DLinDMA>>DLinDAP”. For the compound `CCCCC/C=C\C/C=C\CCCCCCCC(=O)OCC(CN(C)C)OC(=O)CCCCCCC/C=C\C/C=C\CCCCC` (stereo not drawn) [DLinDAP, 1,2-dilineoyl-3-dimethylammonium-propane], the “gene silencing potency series” value in the data set with Factor VII was “DLinKC2-DMA>DLinKDMA>DLinDMA>>DLinDAP”. For “SEQ ID NO 125: dRNA targeted to the HBG1/2 promoter, first guide (guide GGGATGAAGAATAAA; listed as DNA, chemistry not given here)”, in the data set on HBG1/2 promoter (dRNA + active Cas9 + MPH), the “significantly upregulated genes apart from HBG1/2” value was “Zero”. On to “SEQ ID NO 120: 20 nt sgRNA with MS2 binding loops targeted to the HBG1/2 promoter, first guide (guide GGCTAGGGATGAAGAATAAA; listed as DNA, chemistry not given here)”, for which, in the data set on HBG1/2 promoter (setting [1]), the “significantly upregulated genes apart from HBG1/2” value was “Zero”.

eteplirsen: in the data set with dystrophin, the “dystrophin positive fibers compared to baseline” value is 47%. On to “SEQ ID NO 97: dRNA targeted to the HBG1/2 promoter, second guide (guide GAGGCCAGGGGCCGG; listed as DNA, chemistry not given here)”, for which the “significantly upregulated genes apart from HBG1/2” value in the data set with HBG1/2 promoter (dRNA + active Cas9 + MPH) is 31. Consider “1,2-dilinoleyloxy-keto-N,N-dimethyl-3-aminopropane [DLinKDMA]”, for which, in the data set with Factor VII, the “gene silencing potency series” value was “DLinKC2-DMA>DLinKDMA>DLinDMA>>DLinDAP”.
